We go through 18 compounds from PubChem BioAssay (NCI).

Common to all, as to test: inhibition of tumour cell growth, NCI panel, 48 h
The test system of assay [1] is NCI/ADR-RES ovarian.
The test system of assay [2] is HOP-62 NSCLC.
The subject of assay [3] is UO-31 renal.
In assay [4] the test system is RPMI-8226 leukemia.
The subject of assay [5] is OVCAR-5 ovarian.
Assay [6] relates to UACC-62 melanoma.
For assay [7], the system named is MALME-3M melanoma.
Assay [8] relates to COLO 205 colon.
The test system of assay [9] is ACHN renal.
Assay [10] concerns MDA-MB-435.

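Values below derive from 48-hour exposures of cells grown in 96-well plates, with endpoints linearly interpolated between the two concentrations bracketing the appropriate inhibition level. The concentration for 50% growth inhibition is given as GI50. TGI is the concentration that stops growth completely.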

Take `Cc1[nH]c(=O)[nH]c(=O)c1/C=C/C(=O)NC(CO)CS(=O)Cc1ccccc1` (stereo not given): the TGI in assay [1], in assay [2], in assay [3], in assay [4], in assay [5] and in [6] was above 300 µM throughout. Besides, the TGI in [7] and in assay [8] was above 300 µM throughout.
Turning to `CCOC(=O)C(Cc1cn(C(C)=O)c2ccccc12)P(=O)(OCC)OCC` (stereo not given), the TGI in [1], in assay [2], in assay [3], in [4], in assay [9] and in assay [5] was above 100 µM throughout. In assay [8], this compound showed a TGI above 100 µM.
Turning to `O=C(Nc1ccc(-n2cc(-c3ccncc3)c(-c3ccc(O)c(Cl)c3)n2)cc1)Nc1ccc(Cl)c(C(F)(F)F)c1`, the GI50 was 4.1 µM in assay [1]; 2.89 µM in assay [10]; 6.56 µM in assay [2]; 3.01 µM in assay [3]; 1.99 µM in [4]; 2.66 µM in assay [9]. In addition, the GI50 was 5.29 µM in assay [5], 3.9 µM in [6], 3.04 µM in [7] and 6.23 µM in [8]. Besides, the TGI was 52.7 µM in [1]; 15.3 µM in assay [10]; 27.6 µM in assay [2]; 16.4 µM in assay [3]; 5.32 µM in assay [4]; 9.42 µM in [9]. Besides, the TGI was 19.1 µM in assay [5], 14.8 µM in [6], 17.1 µM in assay [7] and 22.9 µM in assay [8].
`O=C(O)CCc1nc2ccccc2[nH]1`: the TGI in assay [1], in assay [10], in assay [2], in assay [3], in assay [4] and in [9] was above 100 µM in each case. Moreover, the TGI in [5], in assay [6], in [7] and in assay [8] was above 100 µM throughout.
On to `COc1ccc(OC)c(C2CCc3c(cnc4nc(N)nc(N)c34)C2)c1` (stereo not given), for which the TGI is above 100 µM in assay [1]; 17.1 µM in assay [10]; 26.8 µM in [2]; 17.2 µM in assay [9]; 22.2 µM in assay [5]; 12.3 µM in [6]. Also, the values for the TGI in assay [7] and in assay [8] were 20.9 µM and 47.3 µM, respectively.
`Cn1ccc(C(=O)NCCN(CCNC(=O)c2ccn(C)c(=O)c2O)CCNC(=O)c2ccn(C)c(=O)c2O)c(O)c1=O`: the TGI in [1], in assay [10], in [2], in assay [3], in [4] and in [9] was above 100 µM each time. In addition, the TGI in assay [5], in assay [6], in assay [7] and in assay [8] was above 100 µM in each case.
Take `CC(=O)O[C@@H]1C(=O)N(c2ccccc2)[C@@H]1c1cc2ccccc2c2ccccc12`: the TGI in [1] is above 100 µM; in assay [10], 48.1 µM; in [2], above 100 µM; in assay [3], 87 µM; in [4] it was 82.6 µM; in assay [9], above 100 µM. Besides, the TGI in assay [5] was above 100 µM; in assay [6] it was above 100 µM; in assay [7], 88.9 µM; in assay [8], 32.3 µM.
`COc1ccc(C(O)(c2ccccc2)c2nccc3ccccc23)cc1` (stereo not given): the TGI in assay [1], in assay [10], in [2], in assay [3], in [4] and in assay [9] was above 100 µM each time. Also, the TGI in assay [5] was above 100 µM; in [6], above 100 µM; in [7], 7.27 µM; in assay [8], above 100 µM.
With `CC(C)C(=O)CC(c1ccc(Cl)cc1)N1N=C(C(C)C)CC1c1ccc(Cl)cc1` (stereo not given), the TGI in assay [2], in [3], in assay [4], in assay [9], in assay [6] and in assay [7] was above 100 µM in each case. The TGI in [8] was above 100 µM.
In the case of `C/C(=N\NC(=S)N(C)C)c1nc2ncccc2[nH]1`, the TGI in [1] is 12.6 µM; in [10] it was above 100 µM; in [2], above 100 µM; in [3], 1.89 µM; in assay [4] it was above 100 µM; in [9] it was 14.7 µM. In addition, the TGI is above 100 µM in assay [5], 2.7 µM in [6], 6.68 µM in assay [7] and 23.9 µM in assay [8].
As to `OCCCNc1ncnc2[nH]ncc12`, the TGI in assay [1], in [10], in [2], in assay [3], in [4] and in assay [9] was above 100 µM throughout. Moreover, the TGI in [5], in [6], in [7] and in assay [8] was above 100 µM throughout.
On to `C/C(=N\NC(=S)NCCCCNC(=S)N/N=C(\C)c1ccccn1)c1ccccc1`, for which the TGI was 3.86 µM in assay [1]; above 100 µM in assay [10]; 6 µM in [2]; 13.1 µM in assay [3]; 14.3 µM in [4]; above 24 µM in assay [9]. Besides, the TGI in [5] was above 85.6 µM; in assay [6], 7.03 µM; in assay [7], above 52.4 µM.
For `COc1cc(/C=N\c2nc(-c3ccc(NS(=O)(=O)c4ccc(Cl)c(OC)c4)cc3)cs2)ccc1O`, the TGI in [1] was above 100 µM; in assay [10], above 100 µM; in [2], above 100 µM; in assay [3], above 100 µM; in assay [4], 74.2 µM; in [9], above 100 µM. The TGI is above 100 µM in assay [5], 36.5 µM in assay [6], above 100 µM in [7] and above 100 µM in assay [8].
With `COc1ccc(-c2cc(-c3ccc(O)cc3O)c(C#N)c(=O)[nH]2)cc1`, the TGI in assay [1] is 46.2 µM; in assay [10], 36.4 µM; in assay [2], 41.1 µM; in assay [3], 69.6 µM; in [4], 43.5 µM; in assay [9] it was above 100 µM. In addition, the TGI in assay [5] came out at 43.3 µM; in assay [6], 36.2 µM; in [7], 70.4 µM; in [8], 31.6 µM.
For `CCOC(=O)CCSc1nc2ccc(I)cc2c(=O)n1Cc1ccccc1`, the TGI in [1] was above 60.3 µM; in [10] it was above 89 µM; in assay [2] it was above 75.2 µM; in assay [3], 1.42 µM; in assay [4], 33.5 µM; in assay [9], above 83 µM. In addition, the TGI was above 100 µM in assay [5], above 93.5 µM in [6], 48.4 µM in [7] and 26.9 µM in assay [8].
Turning to `CCCn1cc2c(SC)nc(SC)nc2n1`, the TGI in assay [3], in assay [4], in assay [9], in assay [5], in assay [7] and in assay [8] was above 100 µM each time.
Take `O=C(O)c1cc(=O)c2c(OCC(O)COc3cccc4oc(C(=O)O)cc(=O)c34)cccc2o1`: the TGI in assay [1], in assay [10], in assay [2], in assay [3], in [4] and in assay [9] was above 100 µM throughout. Besides, the TGI in [5], in [6], in assay [7] and in assay [8] was above 100 µM in each case.
On to `c1ccc(C(NC2=NCCO2)c2ccccc2)cc1`, for which the TGI in [1], in assay [10], in assay [2], in assay [3], in assay [4] and in assay [9] was above 10 µM each time. For the same compound, the TGI in assay [5], in assay [6], in [7] and in assay [8] was above 10 µM throughout.
